Molecules are shown by their SMILES.

This series has as its system patients admitted to hospital with AMI.

Take `O=C(O)c1cn(C2CC2)c2cc(N3CCNCC3)c(F)cc2c1=O` [Ciprofloxacin]: under “386 exposed patients of the 6,699 cohort (FIG. 4A column 415)”, the “actual number of deaths” value was 129. The “expected number of deaths” value (Monte Carlo simulation, 2,000 burn-in and 50,000 iterations (FIG. 4A column 420)) is listed as 28.3. `CC(C)c1c(C(=O)Nc2ccccc2)c(-c2ccccc2)c(-c2ccc(F)cc2)n1CC[C@@H](O)C[C@@H](O)CC(=O)O` [atorvastatin]: the “in-house mortality percentage (count of deaths from the number receiving exposure)” value (Table 500 column 520, cohort of 6,699 AMI inpatients, 5.7% of the cohort died) is listed as 3.4%.

The record behind these values is patent US11380440B1, “Marker screening and signal detection” (Cerner Innovation, Inc., priority 2011, dated 2022).
